# According to patent US11066447B2, “Aureobasidium derivatives and methods of synthesis” (AureoGen Biosciences, Inc., priority 2016, dated 2021):
# Read-outs that look alike come from different tables or passages of the source. Numbered stars: 1 amine (or outer) side, 2 acyl side, 3 side chain; on linkers, the order of the positions; unused ones are H or OH. Square brackets hold non-standard residues; d marks the D form. Peptide text beside a SMILES is read from it. X28 = CN([C@@H](Cc1cccc(-c2ccc(C(F)(F)F)cc2)c1)C(=O)[*:2])[*:1]; X31 = CN([C@@H](Cc1cccc(-c2cccc(C(F)(F)F)c2)c1)C(=O)[*:2])[*:1]; X30 = CN([C@@H](Cc1cccc(-c2ccc(Cl)c(Cl)c2)c1)C(=O)[*:2])[*:1]; X33 = CN([C@@H](Cc1cccc(-c2ccc3ccccc3c2)c1)C(=O)[*:2])[*:1]; X32 = CN([C@@H](Cc1cccc(-c2cccc(F)c2)c1)C(=O)[*:2])[*:1]; Hmp(2R,3S) = CC[C@H](C)[C@@H](O)C(=O)O; NMeVal(β-OH) = CN[C@H](C(=O)O)C(C)(C)O; NMeV = CN[C@H](C(=O)O)C(C)C
# Key:
# [1] = system: C. albicans MMX 2000 ATCC 10231; assay: MIC assay (CLSI microdilution); type: cell-based; settings: Candida albicans, ATCC10231, RPMI plus 0.002% Tween-80; read-out: MIC
# Protocol: (§1) Aureobasidin and test compounds (i.e., AbA derivatives of the present invention) were received from Kalexsyn, Inc. (Kalamazoo, Mich.) as powder and were stored at 4° C. until the day of assay. […] amphotericin was obtained from Sigma Aldrich and stored under like conditions. […] Ethanol (95%) was used as a solvent and diluent for all AbA compounds. Amphotericin B was tested from 0.06-64 μg/mL. Amphotericin B (Sigma Aldrich; St. Louis, Mo.; Cat No. A9528-100MG, Lot No. 120M4087) was dissolved and diluted with dimethylsulfoxide (DMSO; Sigma Aldrich; St. Louis, Mo.; Cat No. 472301 Lot No. SHBD2072V).
# (§2) The solvents were added to the test agents and the stock solutions stood for approximately 1 hr at room temperature prior to use to auto sterilize. Stock solutions were prepared at 40× the desired top concentration in the test plate.
# (§3) All of the test isolates were originally received from either the American Type Culture Collection (ATCC), clinical labs, or directly from Aureogen Biosciences. Organisms stored by Micromyx were cultured on agar medium appropriate to each organism. Colonies were picked by swab from the isolation plates and put into suspension in appropriate broth containing cryoprotectant. The suspensions were aliquoted into cryogenic vials and maintained at −80° C.
# (§4) Prior to testing, Candida isolates were streaked from the frozen vials on Sabouraud dextrose agar. The yeast isolates were incubated for 48 hours at 35° C. before use. The fungal isolates were obtained from enumerated fungal stocks previously prepared at Micromyx and stored in phosphate buffered saline at 4° C.
# (§5) Test Media. The medium employed for the MIC assay was RPMI-1640 medium from HyClone Laboratories (Logan, Utah; Lot No. AYB60287A). The medium was prepared according to Clinical and Laboratory Standards Institute (CLSI) guidelines (1, 2), and modified to include 0.002% Tween-80. Candida parapsilosis ATCC 22019 (MMX 2323) and Aspergillus fumigatus ATCC MYA-3626 (MMX 5280) were also tested without Tween-80 to provide data for the quality control of amphotericin B in accordance with CLSI (3) and to assess the effect of Tween-80 on the activity of the test agents.
# (§6) Test Procedure. The MIC assay method followed the procedure described by CLSI (1, 2) and employed automated liquid handlers to conduct serial dilutions and liquid transfers. Automated liquid handlers included the Multidrop 384 (Labsystems, Helsinki, Finland), Biomek 2000 and Biomek FX (Beckman Coulter, Fullerton Calif.). The wells in columns 2-12 in standard 96-well microdilution plates (Costar 3795) were filled with 150 μl of the appropriate diluent (95% EtOH for investigational compounds, 100% DMSO for amphotericin B). These assay plates would become the ‘mother plates’ from which the assay ‘daughter plates’ would be prepared. The drugs (300 μL at 40× the desired top concentration in the test plates) were dispensed into the appropriate well in Column 1 of the mother plates. The Biomek 2000 was used to make two-fold serial dilutions through Column 11 in the “mother plate”. The wells of Column 12 contained no drug and served as the organism growth control wells.
# (§7) The daughter plates were loaded with 185 μL per well on the Multidrop 384 with RPMI plus 0.002% Tween-80 or RPMI containing no Tween-80 for the testing of the two QC isolates. The daughter plates were prepared on the Biomek FX instrument which transferred 5 μL of drug solution from each well of a mother plate to each corresponding well of each daughter plate in a single step.
# (§8) A standardized inoculum of each organism was prepared per CLSI methods (1, 2). For the Candida isolates, colonies were picked from the streak plate and a suspension was prepared in RPMI to equal a 0.5 McFarland standard. This suspension was diluted 1:100 in RPMI resulting in a final concentration of approximately 0.5-2.5×10^3 CFU/mL. […]
# [2] = system: C. neoformans MMX 0634 ATCC 90112; assay: MIC assay (CLSI microdilution); type: cell-based; settings: Cryptococcus neoformans, ATCC90112, RPMI plus 0.002% Tween-80; read-out: MIC
# Protocol: as §1, §2, §3, §4, §5, §6, §7, §8
# [3] = system: A. fumigatus MMX 6781 ATCC MYA-4609; assay: MIC/MEC assay (CLSI microdilution); type: cell-based; settings: Aspergillus fumigatus; for MIC: 48 h, RPMI plus 0.002% Tween-80, read-out: MIC; for minimal effective concentration: RPMI plus 0.002% Tween-80, 48 hr
# Protocol: as §1, §2, §3, §4, §5, §6, §7, §8
# A. fumigatus MMX 5944 = assay: MIC/MEC assay (CLSI microdilution); type: cell-based; settings: Aspergillus fumigatus, MMX5944, 48 h; for minimal effective concentration: RPMI plus 0.002% Tween-80; for MIC: RPMI plus 0.002% Tween-80, read-out: MIC
# Protocol: as §1, §2, §3, §4, §5, §6, §7, §8
# [4] = system: A. fumigatus MMX 6782 ATCC 13073; assay: MIC/MEC assay (CLSI microdilution); type: cell-based; settings: Aspergillus fumigatus, ATCC13073, 48 h; for minimal effective concentration: RPMI plus 0.002% Tween-80, read-out: MEC; for MIC: RPMI plus 0.002% Tween-80, read-out: MIC
# Protocol: as §1, §2, §3, §4, §5, §6, §7, §8
# [5] = system: A. niger MMX 0624 ATCC 16888; assay: MIC/MEC assay (CLSI microdilution); type: cell-based; settings: for minimal effective concentration: RPMI plus 0.002% Tween-80, read-out: MEC
# Protocol: as §1, §2, §3, §4, §5, §6, §7, §8
# A. flavus MMX 5948 = assay: MIC/MEC assay (CLSI microdilution); type: cell-based; settings: Aspergillus flavus, MMX5948, 48 h; for minimal effective concentration: RPMI plus 0.002% Tween-80; for MIC: RPMI plus 0.002% Tween-80, read-out: MIC
# Protocol: as §1, §2, §3, §4, §5, §6, §7, §8
# [6] = system: A. fumigatus MMX 5280 ATCC MYA-3626; assay: MIC/MEC assay (CLSI microdilution); type: cell-based, Aspergillus fumigatus; settings: Aspergillus fumigatus, 48 h
# Protocol: as §1, §2, §3, §4, §5, §6, §7, §8
# [7] = system: C. parapsilosis MMX 2323 ATCC 22019; assay: MIC assay (CLSI microdilution); type: cell-based, Candida parapsilosis; settings: read-out: MIC
# Protocol: as §1, §2, §3, §4, §5, §6, §7, §8
# [8] = Aspergillus niger, ATCC16888, 48 h
# [9] = Aspergillus niger, ATCC16888, 48 h, RPMI plus 0.002% Tween-80, read-out: MIC
# [10] = RPMI plus 0.002% Tween-80, read-out: MEC
# [11] = RPMI plus 0.002% Tween-80, read-out: MIC
# [12] = Without Tween-80, read-out: MEC
# [13] = Without Tween-80, read-out: MIC
# [14] = ATCC22019, RPMI plus 0.002% Tween-80
# [15] = RPMI plus 0.002% Tween-80, 48 hr
Compound,MIC [1],MIC [2],MIC [3],MIC (A. fumigatus MMX 5944),MIC [4],"MIC [5, 9]",MIC (A. flavus MMX 5948),"MIC [6, 11]","MIC [6, 13]","MIC [7, 14]","MIC ([7]; ATCC22019, Without Tween-80)","MIC [5, 15]",minimal effective concentration [3],minimal effective concentration (A. fumigatus MMX 5944),minimal effective concentration [4],"minimal effective concentration [5, 8]",minimal effective concentration (A. flavus MMX 5948),"minimal effective concentration [6, 10]","minimal effective concentration [6, 12]","MEC [5, 15]"
"CC[C@H](C)[C@@H]1NC(=O)[C@@H]2CCCN2C(=O)[C@H](Cc2cccc(-c3ccc(Cl)c(Cl)c3)c2)N(C)C(=O)[C@H](Cc2ccccc2)NC(=O)[C@H](C(C)C)N(C)C(=O)[C@@H]([C@@H](C)CC)OC(=O)[C@H](C(C)(C)O)N(C)C(=O)[C@H](CC(C)C)NC(=O)[C@H](C(C)C)N(C)C1=O [Compound 2] (cyclo(F[X30]PI[NMeV]L[NMeVal(β-OH)][Hmp(2R,3S)][NMeV]))",0.12 mg/L,0.12 mg/L,> 64 mg/L,> 64 mg/L,> 64 mg/L,0.5 mg/L,1 mg/L,> 64 mg/L,> 64 mg/L,0.5 mg/L,2 mg/L,–,0.5 µg/mL,0.5 µg/mL,0.25 µg/mL,0.5 µg/mL,0.5 µg/mL,0.5 µg/mL,8 µg/mL,–
"CC[C@H](C)[C@@H]1NC(=O)[C@@H]2CCCN2C(=O)[C@H](Cc2cccc(-c3ccc4ccccc4c3)c2)N(C)C(=O)[C@H](Cc2ccccc2)NC(=O)[C@H](C(C)C)N(C)C(=O)[C@@H]([C@@H](C)CC)OC(=O)[C@H](C(C)(C)O)N(C)C(=O)[C@H](CC(C)C)NC(=O)[C@H](C(C)C)N(C)C1=O [Compound 5] (cyclo(F[X33]PI[NMeV]L[NMeVal(β-OH)][Hmp(2R,3S)][NMeV]))",0.12 mg/L,0.12 mg/L,> 64 mg/L,> 64 mg/L,> 64 mg/L,0.5 mg/L,1 mg/L,> 64 mg/L,> 64 mg/L,0.5 mg/L,2 mg/L,–,0.5 µg/mL,0.5 µg/mL,0.5 µg/mL,0.5 µg/mL,0.5 µg/mL,0.5 µg/mL,4 µg/mL,–
"CC[C@H](C)[C@@H]1NC(=O)[C@@H]2CCCN2C(=O)[C@H](Cc2cccc(-c3cccc(F)c3)c2)N(C)C(=O)[C@H](Cc2ccccc2)NC(=O)[C@H](C(C)C)N(C)C(=O)[C@@H]([C@@H](C)CC)OC(=O)[C@H](C(C)(C)O)N(C)C(=O)[C@H](CC(C)C)NC(=O)[C@H](C(C)C)N(C)C1=O [Compound 7] (cyclo(F[X32]PI[NMeV]L[NMeVal(β-OH)][Hmp(2R,3S)][NMeV]))",0.015 mg/L,0.12 mg/L,> 64 mg/L,> 64 mg/L,> 64 mg/L,0.25 mg/L,> 64 mg/L,> 64 mg/L,> 64 mg/L,0.12 mg/L,1 mg/L,–,1 µg/mL,0.5 µg/mL,0.5 µg/mL,0.25 µg/mL,> 64 µg/mL,2 µg/mL,64 µg/mL,–

# More lines, main results first:
MIC [1],MIC [2],MIC [3],MIC (A. fumigatus MMX 5944),MIC [4],"MIC [5, 9]",MIC (A. flavus MMX 5948),"MIC [6, 11]","MIC [6, 13]","MIC [7, 14]","MIC ([7]; ATCC22019, Without Tween-80)","MIC [5, 15]",Compound,minimal effective concentration [3],minimal effective concentration (A. fumigatus MMX 5944),minimal effective concentration [4],"minimal effective concentration [5, 8]",minimal effective concentration (A. flavus MMX 5948),"minimal effective concentration [6, 10]","minimal effective concentration [6, 12]","MEC [5, 15]"
0.12 mg/L,0.12 mg/L,> 64 mg/L,> 64 mg/L,> 64 mg/L,–,> 64 mg/L,> 64 mg/L,> 64 mg/L,0.5 mg/L,2 mg/L,1/1 μg/mL,"CC[C@H](C)[C@@H]1NC(=O)[C@@H]2CCCN2C(=O)[C@H](Cc2cccc(-c3ccc(C(F)(F)F)cc3)c2)N(C)C(=O)[C@H](Cc2ccccc2)NC(=O)[C@H](C(C)C)N(C)C(=O)[C@@H]([C@@H](C)CC)OC(=O)[C@H](C(C)(C)O)N(C)C(=O)[C@H](CC(C)C)NC(=O)[C@H](C(C)C)N(C)C1=O [Compound 3] (cyclo(F[X28]PI[NMeV]L[NMeVal(β-OH)][Hmp(2R,3S)][NMeV]))",> 64 µg/mL,> 64 µg/mL,> 64 µg/mL,–,> 64 µg/mL,> 64 µg/mL,> 64 µg/mL,1/1 μg/mL
0.12 mg/L,0.25 mg/L,> 64 mg/L,> 64 mg/L,> 64 mg/L,0.5 mg/L,> 64 mg/L,> 64 mg/L,> 64 mg/L,0.5 mg/L,2 mg/L,–,"CC[C@H](C)[C@@H]1NC(=O)[C@@H]2CCCN2C(=O)[C@H](Cc2cccc(-c3cccc(C(F)(F)F)c3)c2)N(C)C(=O)[C@H](Cc2ccccc2)NC(=O)[C@H](C(C)C)N(C)C(=O)[C@@H]([C@@H](C)CC)OC(=O)[C@H](C(C)(C)O)N(C)C(=O)[C@H](CC(C)C)NC(=O)[C@H](C(C)C)N(C)C1=O [Compound 4] (cyclo(F[X31]PI[NMeV]L[NMeVal(β-OH)][Hmp(2R,3S)][NMeV]))",> 64 µg/mL,1 µg/mL,1 µg/mL,0.5 µg/mL,> 64 µg/mL,> 64 µg/mL,> 64 µg/mL,–
